Results from the SangsterLogP compilation.

SMILES | logP
CN(N)C(=O)c1ccc([N+](=O)[O-])cc1 | 0.99
CN(NC(=S)Nc1ccccc1)C(=O)c1ccc([N+](=O)[O-])cc1 | 2.69
NN(C(=O)c1ccc([N+](=O)[O-])cc1)c1ccccc1 | 2.62
COc1ccc(C(=O)N(C)N)cc1 | 1.23
Cc1ccc(C(=O)N(C)N)cc1 | 1.57
Cc1ccc(C(=O)N(NC(=S)Nc2ccccc2)c2ccccc2)cc1 | 4.12
COc1ccc(C(=O)N(C)NC(=S)Nc2ccccc2)cc1 | 2.8
CN(N)C(=O)c1ccccc1 | 0.96
COc1ccc(C(=O)N(N)c2ccccc2)cc1 | 2.94
NN(C(=O)c1ccccc1)c1ccccc1 | 2.44
O=C(c1ccc([N+](=O)[O-])cc1)N(NC(=S)Nc1ccccc1)c1ccccc1 | 3.91

More lines, now with the values ahead:

logP | SMILES
3.27 | CC=NN(C(=O)c1ccc(OC)cc1)c1ccccc1
2.88 | CC=NN(C(=O)c1ccccc1)c1ccccc1
3.14 | C/C=N/N(C(=O)c1ccc([N+](=O)[O-])cc1)c1ccccc1
3.1 | Cc1ccc(C(=O)N(N)c2ccccc2)cc1
3.39 | C/C=N/N(C(=O)c1ccc(C)cc1)c1ccccc1
2.88 | Cc1ccc(C(=O)N(C)NC(=S)Nc2ccccc2)cc1
